Data as given in patent US20120142601A1, “Modified Peptides and Uses Thereof” (MUSC Foundation for Research Development, priority 2009, published 2012).
Non-standard residues stand in square brackets, D forms with d. Residues, ends and D or L forms follow the SMILES beside them. No end group written: not given here. *: point of attachment. NMeR = CN[C@@H](CCCNC(=N)N)C(=O)O; Tle = CC(C)(C)[C@H](N)C(=O)O; X1 = C[C@@H](CCCCCN)C(=O)*

Tests used:
[1] = Catalepsy (bar test); conditions: 5 mg/kg
[2] = rat, in vivo
[3] = Hypothermia studies in the male Sprague-Dawley rat with various compounds; type: in vivo; conditions: dose 1 mg/kg in saline
Protocol: Hypothermia studies in the male Sprague-Dawley rat were conducted using different compounds (dosed in saline) and the results are summarized in Table 1. For each compound, the maximum decrease in temperature (Δtemp) and the area under the curve for hypothermia versus a saline control (AUC) were measured.

[4] = target: NTR1 (Homo sapiens, UniProt P30989); conditions: cited from earlier work
Chain of NTR1 (P30989 whole entry, species assumed): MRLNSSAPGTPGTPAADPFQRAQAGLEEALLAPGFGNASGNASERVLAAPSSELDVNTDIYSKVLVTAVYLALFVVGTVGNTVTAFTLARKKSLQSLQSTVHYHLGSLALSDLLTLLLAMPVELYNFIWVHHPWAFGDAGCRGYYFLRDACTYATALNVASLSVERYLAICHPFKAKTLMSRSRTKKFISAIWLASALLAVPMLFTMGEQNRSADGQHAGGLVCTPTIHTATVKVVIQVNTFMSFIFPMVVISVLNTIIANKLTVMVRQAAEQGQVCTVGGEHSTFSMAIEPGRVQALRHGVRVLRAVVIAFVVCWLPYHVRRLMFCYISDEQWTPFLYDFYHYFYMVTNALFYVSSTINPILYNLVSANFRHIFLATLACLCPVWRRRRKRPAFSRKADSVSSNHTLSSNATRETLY

[5] = cited from earlier work
[6] = in vivo; cited from earlier work

CC(C)C[C@H](NC(=O)[C@@H](NC(=O)[C@H](Cc1ccc(O)cc1)NC(=O)[C@@H]1CCCN1C(=O)[C@H](CCCNC(=N)N)NC(=O)[C@@H](C)CCCCCN)C(C)(C)C)C(=O)O [ABS-201] (X1-RPY[Tle]L-OH)
catalepsy after peripheral administration [1]: does not induce catalepsy

O=C(CCCN1CCC(O)(c2ccc(Cl)cc2)CC1)c1ccc(F)cc1 [Haloperidol]
duration of induced catalepsy [2]: greater than 30 sec

N-Me-L-Arg-L-Lys-L-Pro-L-Trp-t-Leu-L-Leu ([NMeR]KPW[Tle]L) [SEQ ID NO:2, reference compound]
AUC (area under the curve for hypothermia versus saline control) [3]: 700 | Δtemp (maximum decrease in temperature) [3]: −4.2 | loss of binding affinity at NTR1 [4]: 700 fold | central activity after oral administration ([5]; oral): not able to elicit central activity

N-Me-L-Arg-L-Lys-L-Pro-L-neoTyr-t-Leu-L-Leu [NT69L]
Kd [4]: 1.55 nM | hypothermic effect ([5]; 1 mg/kg injection, 90 min post-injection): −5.3 °C | effect of chronic administration on hypothermic effect ([5]; chronic administration): tolerance to its hypothermic effect | hypothermic response after oral administration ([5]; oral): only a slight hypothermic response | hyperactivity induced by cocaine and d-amphetamine [6]: attenuated hyperactivity
